This note sets out measurements from article PMC11855827, “High-Throughput Screening of Five Compound Libraries for Anthelmintic Activity and Toxicity Leads to the Discovery of Two Flavonoid Compounds” (International Journal of Molecular Sciences, 2025).

Several values for one entry are separate records, joined by “and”; a condition that tells them apart may be missing. Identical values can stand only once. Like-named read-outs stand apart in the source and are kept apart here.

The test system of this assay is C. elegans.
Where [1] appears, read: Table S2, C. elegans SS assay, 110 μM, 0 h, averages of 4 data points.
Where [2] appears, read: Table S2, C. elegans SS assay, 110 μM, 24 h, averages of 4 data points.

For `O=C1C[C@@H](c2ccc(O)c(O)c2)Oc2cc(O[C@@H]3O[C@H](CO)[C@@H](O)[C@H](O)[C@H]3O)cc(O)c21` [Eriodictyol‐7‐O‐glucoside], the “Percentage of motility inhibition 0 h” value under setting [1] worked out at 11%. For the same molecule, the “Percentage of motility inhibition 24 h” value under setting [2] worked out at 4%.

For `C[C@@H](O)[C@H]1C(=O)N2C(C(=O)[O-])=C(S[C@@H]3CN[C@H](C(=O)Nc4cccc(C(=O)O)c4)C3)[C@H](C)[C@H]12.[Na+]` [Ertapenem sodium], the “Percentage of motility inhibition 0 h” value under setting [1] amounted to 0%. Moreover, the “Percentage of motility inhibition 24 h” value under setting [2] amounted to 0%. Consider `COC(=O)[C@@]1(C)CC[C@]2(C(=O)O)CC[C@]3(C)C(=CC[C@@H]4[C@@]5(C)C[C@H](O)[C@H](O[C@@H]6OC[C@@H](O[C@@H]7O[C@H](CO)[C@@H](O)[C@H](O)[C@H]7O)[C@H](O)[C@H]6O)[C@@](C)(CO)[C@@H]5CC[C@]43C)[C@@H]2C1` [Esculentoside A], for which the “Percentage of motility inhibition 0 h” value under setting [1] was 17%. For the same molecule, the “Percentage of motility inhibition 24 h” value under setting [2] is reported as 3%. The like results for `COC(=O)[C@]1(C)CC[C@]2(C(=O)O[C@@H]3O[C@H](CO)[C@@H](O)[C@H](O)[C@H]3O)CC[C@]3(C)C(=CC[C@@H]4[C@@]5(C)C[C@H](O)[C@H](O[C@@H]6OC[C@@H](O[C@@H]7O[C@H](CO)[C@@H](O)[C@H](O)[C@H]7O)[C@H](O)[C@H]6O)[C@@](C)(CO)C5CC[C@]43C)[C@H]2C1` (some centres unmarked) [Esculentoside H] were, in that order, 0% and 17%. The like results for `CC[C@@H](CO)NCCN[C@@H](CC)CO.Cl.Cl` [Ethambutol (dihydrochloride)] were, in that order, 26% and 6%. As for `CCOC1c2c(ccc3c2OCO3)-c2ccc3cc4c(cc3c2N1C)OCO4` (centres unmarked) [Ethoxysanguinarine], under setting [1], the “Percentage of motility inhibition 0 h” value was determined as 0%. Moreover, the “Percentage of motility inhibition 24 h” value under setting [2] is on record as 31%.

Take `C=C1C(=O)O[C@@H]2/C=C(\C)[C@@H](OC(C)=O)C/C=C(\COC(C)=O)C[C@@H](OC(=O)/C(C)=C/CO)[C@@H]12` [Eupalinolide A]: for the setting “110 µM”, the “Percentage of motility inhibition 0 h” value was 11% and the “Percentage of motility inhibition 24 h” value is on record as 38%. The like results for `C=C1C(=O)O[C@@H]2/C=C(\C)[C@@H](OC(C)=O)C/C=C(\COC(C)=O)C[C@@H](OC(=O)/C(C)=C/CO)[C@@H]12` [Eupalinolide B] were, in that order, 0% and 0%. As for `C=C1C(=O)O[C@@H]2/C=C(/C)C(OC(C)=O)C/C=C(/C=O)CC(OC(=O)/C(C)=C/CO)[C@@H]12` (some centres unmarked) [Eupalinolide O], the “Percentage of motility inhibition 0 h” value under setting [1] is reported as 1%. The “Percentage of motility inhibition 24 h” value under setting [2] was determined as 9%.

On to `C=C1[C@H](OC(=O)c2ccccc2)C[C@H]2[C@@H](/C=C(\C)C(=O)[C@@]3(OC(C)=O)C[C@H](C)[C@H](OC(=O)c4ccccc4)[C@@H]3[C@H]1OC(C)=O)C2(C)C` [Euphorbia Factor L2], for which, under setting [1], the “Percentage of motility inhibition 0 h” value is reported as 27%. The “Percentage of motility inhibition 24 h” value under setting [2] is listed as 21%. The like results for `CC(=O)OC/C1=C\[C@H]2[C@@H](OC(=O)/C=C/c3ccccc3)[C@@H](C)C[C@]2(OC(C)=O)C(=O)/C(C)=C/[C@@H]2[C@H](CC1)C2(C)C` [Euphorbia factor L7a] were, in that order, 21% and 23%. The like results for `CC(=O)OC/C1=C/C[C@H]2[C@@H](/C=C(\C)C(=O)[C@@]3(OC(C)=O)C[C@H](C)[C@H](OC(=O)c4ccccc4)[C@@H]3[C@H]1OC(C)=O)C2(C)C` [Euphorbia factor L7b] were, in that order, 14% and 37%. Regarding `Cl.Cl.O=C(C[C@H]1NCCC[C@@H]1O)Cn1cnc2ccccc2c1=O` [Febrifugine (dihydrochloride)], the “Percentage of motility inhibition 0 h” value under setting [1] is on record as 30%. Also, the “Percentage of motility inhibition 24 h” value under setting [2] came to 2%. The like results for `Clc1ccc(C(Cn2ccnc2)OCc2ccc(Sc3ccccc3)cc2)c(Cl)c1.O=[N+]([O-])O` (centres unmarked) [Fenticonazole (Nitrate)] were, in that order, 45% and 13%. For `C=CC1=C(C)c2cc3[n-]c(cc4[n-]c(cc5nc(cc1n2)C(C)=C5C=C)c(C)c4CCC(=O)O)c(CCC(=O)O)c3C.[Fe+2]` [Ferroheme], the “Percentage of motility inhibition 0 h” value under setting [1] is reported as 0%. Further, the “Percentage of motility inhibition 24 h” value under setting [2] is given as 0%. For the molecule `COc1cc(/C=C/C(=O)[O-])ccc1O.[Na+]` [Ferulic acid (sodium)], under setting [1], the “Percentage of motility inhibition 0 h” value is 10%. Moreover, the “Percentage of motility inhibition 24 h” value under setting [2] came to 0%.

Regarding `COc1cc(/C=C/C(=O)O)ccc1O` [Ferulic acid], under setting [1], the “Percentage of motility inhibition 0 h” value is 58%. Also, the “Percentage of motility inhibition 24 h” value under setting [2] turned out to be 8%.

Take `CCN1C[C@@]2(COC)[C@H]3[C@@H](OC)[C@H]4[C@@H]1[C@]3([C@@H](OC)C[C@H]2OC(C)=O)[C@@H]1C[C@@]2(O)[C@H](OC(=O)c3ccccc3)[C@@H]1[C@]4(OC(C)=O)[C@@H](O)[C@@H]2OC` [Flaconitine]: the “Percentage of motility inhibition 0 h” value under setting [1] is 13% and 5%. Take `C[C@@H]1O[C@@H]1P(=O)([O-])[O-].[Ca+2]` [Fosfomycin (calcium)]: the “Percentage of motility inhibition 0 h” value under setting [1] is reported as 4%. Also, under setting [2], the “Percentage of motility inhibition 24 h” value was determined as 0%. Regarding `C/C1=C\C(=O)c2c(C)coc2C/C(C)=C/CC1` [Furanodienone], the “Percentage of motility inhibition 0 h” value under setting [1] came out at 0%. The “Percentage of motility inhibition 24 h” value under setting [2] was found to be 0%. With `CC(=O)O[C@H]1C[C@@]2(C)[C@@H](C[C@@H](O)[C@H]3[C@@]4(C)CC[C@@H](O)[C@@H](C)[C@@H]4CC[C@@]32C)/C1=C(\CCC=C(C)C)C(=O)[O-].[Na+]` [Fusidic acid (sodium salt)], under setting [2], the “Percentage of motility inhibition 24 h” value was 35% and 44%.

For `C/C=C1/[C@H](O[C@@H]2O[C@H](CO)[C@@H](O)[C@H](O)[C@H]2O)OC=C(C(=O)OC)[C@H]1CC(=O)OC[C@H]1O[C@@H](OCCc2ccc(OC(=O)C[C@@H]3C(C(=O)OC)=CO[C@@H](O[C@@H]4O[C@H](CO)[C@@H](O)[C@H](O)[C@H]4O)/C3=C/C)cc2)[C@H](O)[C@@H](O)[C@@H]1O` [GL3], the “Percentage of motility inhibition 0 h” value under setting [1] is on record as 0%. Moreover, the “Percentage of motility inhibition 24 h” value under setting [2] is on record as 18%. In the case of `CC(C)OC(=O)[C@H](C)N[P@](=O)(CO[C@H](C)Cn1cnc2c(N)ncnc21)Oc1ccccc1.O=C(O)/C=C/C(=O)O` [GS‐7340 (fumarate)], the “Percentage of motility inhibition 0 h” value under setting [1] is 20%. Further, under setting [2], the “Percentage of motility inhibition 24 h” value came out at 8%.

Regarding `CC(C)OC(=O)[C@H](C)N[P@](=O)(CO[C@H](C)Cn1cnc2c(N)ncnc21)Oc1ccccc1.CC(C)OC(=O)[C@H](C)N[P@](=O)(CO[C@H](C)Cn1cnc2c(N)ncnc21)Oc1ccccc1.O=C(O)/C=C/C(=O)O` [GS‐7340 (hemifumarate)], the “Percentage of motility inhibition 0 h” value under setting [1] is recorded as 21%. For the same molecule, under setting [2], the “Percentage of motility inhibition 24 h” value turned out to be 0%. As to `Br.COc1ccc2c3c1O[C@H]1C[C@@H](O)C=C[C@@]31CCN(C)C2` [Galanthamine (hydrobromide)], the “Percentage of motility inhibition 0 h” value under setting [1] is 2% and 0%. For the molecule `COc1ccc2c3c1O[C@H]1C[C@@H](O)C=C[C@@]31CC[N+](C)([O-])C2` (some centres unmarked) [Galanthamine N‐Oxide], the “Percentage of motility inhibition 0 h” value under setting [1] is on record as 3%. The “Percentage of motility inhibition 24 h” value under setting [2] amounted to 4%. For `CC(C)=CCN=C(N)N.Cl` [Galegine (hydrochloride)] the same measures were 0% and 0%. The like results for `O.O=C(O)c1cc(O)c(O)c(O)c1` [Gallic acid (hydrate)] were, in that order, 6% and 7%.

With `CCCN1C[C@H](C)[C@@H](O)[C@](C)(O)[C@@H](CC)OC(=O)[C@H](C)[C@@H](O[C@H]2C[C@@](C)(OC)[C@@H](O)[C@H](C)O2)[C@H](C)[C@@H](O[C@@H]2O[C@H](C)C[C@H](N(C)C)[C@H]2O)[C@](C)(O)C[C@H]1C` [Gamithromycin], the “Percentage of motility inhibition 0 h” value under setting [1] amounted to 37%. Besides, the “Percentage of motility inhibition 24 h” value under setting [2] came to 44%. For `C[C@H](CC(=O)C[C@](C)(O)[C@@H]1CC(=O)[C@@]2(C)C3=C(C(=O)C[C@]12C)[C@@]1(C)CC[C@H](O)C(C)(C)[C@@H]1C[C@@H]3O)C(=O)O` [Ganoderic acid I] the same measures were 0% and 11%. For `CC(CC(=O)CC(C)(O)C1CC(=O)C2(C)C3=C(C(=O)CC12C)C1(C)CCC(=O)C(C)(C)C1CC3O)C(=O)O` (centres unmarked) [Ganoderic acid N] the same measures were 0% and 0%. For `CC(CC(=O)CC(C)[C@H]1CC(=O)C2(C)C3=C(C(=O)C(=O)C12C)C1(C)CCC(=O)C(C)(C)[C@@H]1CC3=O)C(=O)O` (some centres unmarked) [Ganosporeric acid A] the same measures were 36% and 9%.

`CCNCc1nc2c(N)nc3ccccc3c2n1CC(C)(C)O.O=C(O)C(F)(F)F` [Gardiquimod trifluoroacetate]: the “Percentage of motility inhibition 0 h” value under setting [1] is 33%. In addition, the “Percentage of motility inhibition 24 h” value under setting [2] is given as 0%. Turning to `CS(=O)(=O)O.C[C@H]1NCc2cc(-c3ccc4c(=O)c(C(=O)O)cn(C5CC5)c4c3OC(F)F)ccc21.O` [Garenoxacin (Mesylate hydrate)], under setting [1], the “Percentage of motility inhibition 0 h” value is 61%. Besides, the “Percentage of motility inhibition 24 h” value under setting [2] stood at 25%. The like results for `C/C=C1/CN2CCc3c([nH]c4ccccc34)[C@@H]2C[C@@H]1/C(=C/OC)C(=O)OC` [Geissoschizine methyl ether] were, in that order, 0% and 19%. For `COC(=O)C1=CO[C@@H](O[C@@H]2O[C@H](CO[C@@H]3O[C@H](CO)[C@@H](O)[C@H](O)[C@H]3O)[C@@H](O)[C@H](O)[C@H]2O)[C@@H]2C(CO)=CC[C@H]12` [Genipin 1-β-D-gentiobioside] the same measures were 0% and 17%. The like results for `CC(C)=C1C/C=C(\C)CC/C=C(\C)CC1=O` [Germacrone] were, in that order, 12% and 9%.
